Measurements taken from patent US20240199587A1, “HETEROCYCLIC COMPOUNDS” (Hoffmann-La Roche Inc., priority 2021, published 2024).
pIC50: −log10 of the molar value.

Target: T1, MAGL (Homo sapiens, UniProt Q99685)
T1 sequence (Q99685 1-303): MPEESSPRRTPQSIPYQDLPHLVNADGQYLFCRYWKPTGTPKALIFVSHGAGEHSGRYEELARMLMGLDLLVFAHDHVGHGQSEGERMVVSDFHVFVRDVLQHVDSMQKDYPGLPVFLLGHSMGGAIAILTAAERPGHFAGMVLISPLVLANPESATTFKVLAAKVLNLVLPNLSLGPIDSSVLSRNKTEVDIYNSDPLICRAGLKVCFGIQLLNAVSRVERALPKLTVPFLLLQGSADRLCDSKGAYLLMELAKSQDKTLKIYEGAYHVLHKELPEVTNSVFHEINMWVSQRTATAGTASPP
Test: 2-AG assay (MAGL inhibitory activity, hydrolysis of 2-arachidonoylglycerol to arachidonic acid followed by mass spectrometry)
Assay type: biochemical
Details: 8 μM 2-arachidonoylglycerol, 15 min pre-incubation, 30 min incubation at RT, RapidFire MS readout
How it was run: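 Human MAGL ([…] final) pre-incubated 15 min at RT with compound in 50 mM TRIS, 1 mM EDTA, 0.01% Tween-20, 2.5% DMSO; 8 μM 2-AG then added for 30 min at RT. Acetonitrile quench with d8-arachidonic acid; arachidonic acid measured by RapidFire SPE–MS/MS, activity from arachidonic acid/d8 ratio.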

Row | pIC50 | Compound
1 | 8.41 | O=C(N1CC(OCc2ccc(S(F)(F)(F)(F)F)cc2F)C1)N1CC2(CC(n3cnc(C4CC4)c3)C2)C1 [Example 105, [6-(4-cyclopropylimidazol-1-yl)-2-azaspiro[3.3]heptan-2-yl]-[3-[[2-fluoro-4-(pentafluoro-λ^6-sulfanyl)phenyl]methoxy]azetidin-1-yl]methanone]
2 | 7.56 | O=C(N1CC2(CC(Cc3ccc(C(F)(F)F)nn3)C2)C1)N1CC2(CC(n3cnc(C4(O)CC4)n3)C2)C1 [Example 409, [6-[3-(1-hydroxycyclopropyl)-1,2,4-triazol-1-yl]-2-azaspiro[3.3]heptan-2-yl]-[6-[[6-(trifluoromethyl)pyridazin-3-yl]methyl]-2-azaspiro[3.3]heptan-2-yl]methanone]
3 | 7.02 | CC(C)(Cc1cccc(OC2CN(C(=O)N3CC4(CC(n5cnc(C6CC6)n5)C4)C3)C2)c1)C(=O)O [Example 299, 3-[3-[1-[6-(3-cyclopropyl-1,2,4-triazol-1-yl)-2-azaspiro[3.3]heptane-2-carbonyl]azetidin-3-yl]oxyphenyl]-2,2-dimethyl-propanoic acid]
4 | 8.00 | O=C(c1cnc(OCC2(C(F)(F)F)CC2)c(C2COC2)c1)N1CC2(CC(n3cnc(C4CC4)n3)C2)C1 [Example 154, [6-(3-cyclopropyl-1,2,4-triazol-1-yl)-2-azaspiro[3.3]heptan-2-yl]−[5-(oxetan-3-yl)-6-[[1-(trifluoromethyl)cyclopropyl]methoxy]-3-pyridyl]methanone]
5 | 7.71 | CS(=O)(=O)c1ccc(CC2CC3(C2)CN(C(=O)N2CC4(CC(n5cnc(C(F)(F)F)n5)C4)C2)C3)nc1 [Example 458, [6-[(5-methylsulfonyl-2-pyridyl)methyl]-2-azaspiro[3.3]heptan-2-yl]-[6-[3-(trifluoromethyl)-1,2,4-triazol-1-yl]-2-azaspiro[3.3]heptan-2-yl]methanone]
6 | 8.77 | O=C(N1CC(OCc2cccc(S(=O)(=O)C(F)(F)F)c2)C1)N1CC2(CC(n3cnc(C4CC4)n3)C2)C1 [Example 498, [6-(3-cyclopropyl-1,2,4-triazol-1-yl)-2-azaspiro[3.3]heptan-2-yl]-[3-[[3-(trifluoromethylsulfonyl)phenyl]methoxy]azetidin-1-yl]methanone]
7 | 8.40 | O=C(N1C[C@H]2C[C@H](Oc3c(F)cc(F)cc3F)C[C@H]2C1)N1CC2(CC(n3cnc(C4CC4)n3)C2)C1 [Example 124, [6-(3-cyclopropyl-1,2,4-triazol-1-yl)-2-azaspiro[3.3]heptan-2-yl]-[rac-(3aS,6aR)-5-(2,4,6-trifluorophenoxy)-3,3a,4,5,6,6a-hexahydro-1H-cyclopenta[c]pyrrol-2-yl]methanone]
8 | 8.90 | CS(=O)(=O)c1ccc(CC2CC3(C2)CN(C(=O)N2CC4(CC(n5cnc(C6(O)CC6)n5)C4)C2)C3)cc1C(F)(F)F [Example 385, [6-[3-(1-hydroxycyclopropyl)-1,2,4-triazol-1-yl]-2-azaspiro[3.3]heptan-2-yl]-[6-[[4-methylsulfonyl-3-(trifluoromethyl)phenyl]methyl]-2-azaspiro[3.3]heptan-2-yl]methanone]
9 | 8.28 | COc1ccc(OC2CC3(C2)CN(C(=O)N2CC4(CC(n5cnc(C6CC6)n5)C4)C2)C3)cn1 [Example 60, (6-(3-cyclopropyl-1H-1,2,4-triazol-1-yl)-2-azaspiro[3.3]heptan-2-yl)(6-((6-methoxypyridin-3-yl)oxy)-2-azaspiro[3.3]heptan-2-yl)methanone]
10 | 6.52 | NS(=O)(=O)c1ccc(F)c(CC2CCN(C(=O)N3CC4(CC(n5cnc(C6CC6)n5)C4)C3)CC2)c1 [Example 319]
11 | 9.60 | N=S(=O)(c1cccc(CC2CC3(C2)CN(C(=O)N2CC4(CC(n5cnc(C6(O)CC6)n5)C4)C2)C3)c1)C(F)(F)F (single isomer, unassigned) [Example 407, [6-[3-(1-hydroxycyclopropyl)-1,2,4-triazol-1-yl]-2-azaspiro[3.3]heptan-2-yl]-[6-[[3-(trifluoromethyl-sulfonimidoyl)phenyl]methyl]-2-azaspiro[3.3]heptan-2-yl]methanone]
12 | 8.34 | O=C(N1CC2(CC(n3cnc(C4CC4)n3)C2)C1)N1CC2(C1)CN(S(=O)(=O)c1ccc(OC(F)(F)F)cc1)C2 [Example 230, [6-(3-cyclopropyl-1,2,4-triazol-1-yl)-2-azaspiro[3.3]heptan-2-yl]-[2-[4-(trifluoromethoxy)phenyl]sulfonyl-2,6-diazaspiro[3.3]heptan-6-yl]methanone]
13 | 6.97 | O=C(N1CC2(CC(n3cnc(C4CC4)n3)C2)C1)N1CC2(C1)CN(S(=O)(=O)C(F)(F)F)C2 [Example 304, [6-(3-cyclopropyl-1,2,4-triazol-1-yl)-2-azaspiro[3.3]heptan-2-yl]-[2-(trifluoromethylsulfonyl)-2,6-diazaspiro[3.3]heptan-6-yl]methanone]
14 | 8.18 | CC(C)(C)CS(=O)(=O)N1CC2(CN(C(=O)N3CC4(CC(n5cnc(C6CC6)n5)C4)C3)C2)C1 [Example 239]
15 | 6.09 | O=C(N1CC(OCc2ccc(F)cc2Cl)C1)N1CC2(CC(c3ccc(C(F)(F)F)nc3)C2)C1 [Example 533, [3-[(2-chloro-4-fluoro-phenyl)methoxy]azetidin-1-yl]-[6-[6-(trifluoromethyl)-3-pyridyl]-2-azaspiro[3.3]heptan-2-yl]methanone]
16 | 8.62 | O=C(N1CC2(CC(Cc3ncc(Cl)cc3F)C2)C1)N1CC2(CC(n3cnc(C4(O)CC4)n3)C2)C1 [Example 367, [6-[(5-chloro-3-fluoro-2-pyridyl)methyl]-2-azaspiro[3.3]heptan-2-yl]-[6-[3-(1-hydroxycyclopropyl)-1,2,4-triazol-1-yl]-2-azaspiro[3.3]heptan-2-yl]methanone]
17 | 7.94 | O=C(N1CC2(CC(n3cnc(C4CC4)n3)C2)C1)N1CC2(CN(Cc3cnc(C(F)(F)F)cn3)C2)C1 [Example 473, [6-(3-cyclopropyl-1,2,4-triazol-1-yl)-2-azaspiro[3.3]heptan-2-yl]-[6-[[5-(trifluoromethyl)pyrazin-2-yl]methyl]-2,6-diazaspiro[3.3]heptan-2-yl]methanone]
18 | 6.21 | O=C(O)c1ccc(F)c(S(=O)(=O)N2CC3(CN(C(=O)N4CC5(CC(n6cnc(C7CC7)n6)C5)C4)C3)C2)c1 [Example 327]
19 | 7.57 | O=C(N1CC2(CC(n3cnc(C4CC4)n3)C2)C1)N1CC2(C1)CN(S(=O)(=O)c1cnccc1C(F)(F)F)C2 [Example 263, [6-(3-cyclopropyl-1,2,4-triazol-1-yl)-2-azaspiro[3.3]heptan-2-yl]-[2-[[4-(trifluoromethyl)-3-pyridyl]sulfonyl]-2,6-diazaspiro[3.3]heptan-6-yl]methanone]
20 | 5.85 | CNC(=O)[C@@H](c1ccc(F)cc1)N1CCN(C(=O)N2CC3(CC(n4cnc(C5CC5)n4)C3)C2)CC1 [Example 335, (2R)-2-[4-[6-(3-cyclopropyl-1,2,4-triazol-1-yl)-2-azaspiro[3.3]heptane-2-carbonyl]piperazin-1-yl]-2-(4-fluorophenyl)-N-methyl-acetamide]
21 | 8.92 | O=C(N1CC2(CC(Oc3ccc(OC(F)(F)F)cc3)C2)C1)N1CC2(CC(n3cnc(C4CC4)n3)C2)C1 [Example 54, [6-(3-cyclopropyl-1,2,4-triazol-1-yl)-2-azaspiro[3.3]heptan-2-yl]-[6-[4-(trifluoromethoxy)phe-noxy]-2-azaspiro[3.3]heptan-2-yl]methanone]
